Tests used:
C5L2 protein = target: T1, C5L2 protein (Homo sapiens, UniProt Q9P296); assay: Ligand screening: binding of radio-labeled candidate compound to cell membrane fraction of 293 cells transformed with pcDNAC5L2 versus empty-vector control; settings: final concentration of CGS21680 100 nM; 37° C. for 30 minutes; supernatant counted by liquid scintillation
T1 construct: Myc (C); His (C); expressed in transfected cells; host or cells: 293 cell line (ATCC CRL-1573), cell membrane fraction
Method: The transformants were incubated for 48 to 72 hours. The incubated cells were washed with PBS and, then, 1 ml/plate of EDTA-containing PBS (EDTA concentration: 0.01%) was added to the washed cells. Using Cell Scraper-L (catalog number: MS-93300) (manufactured and sold by Sumitomo Bakelite Co., Ltd., Japan), the cells were scraped off from the plate and washed twice with PBS. The washed cells were suspended in 0.5 ml of 25 mM HEPES solution (pH 7.4) containing Complete™ Protease Inhibitor Cocktail Set (manufactured and sold by Boehringer Mannheim Corporation, Germany), and the resultant cell suspension was transferred to a microtube. […]
The cell membrane fractions were prepared from the 293 cells (i.e., cells of 293 cell line) transformed with pcDNAC5L2 (i.e., C5L2 transformants) and the 293 cells transformed with pcDNA3.1/Myc-His(+)B vector (i.e., control) in substantially the same manner as in Example 5. […] Subsequently, the radioactivity of the prepared sample was measured by means of a scintillation counter (Beckman LS6000LL, manufactured and sold by Beckman Instruments, Inc., U.S.A.). The amount of the unbound candidate compound was determined from the measured radioactivity.

[1] = target: T2, C5L2 protein-expressing CHO cells (Homo sapiens, UniProt Q9P296); assay: Screening of a substance which antagonizes a ligand: chemotaxis assay of CHO cells transformed with C5L2 toward LPS-administered rat serum; assay type: cell-based; settings: NECA final concentration 100 μM in upper and lower compartments; LPS-administered rat serum as ligand source
T2 construct: Myc (C); His (C); expressed in transfected cells; host or cells: CHO cells (ATCC CCL-61), Geneticin-selected
T2 sequence (Q9P296 whole entry): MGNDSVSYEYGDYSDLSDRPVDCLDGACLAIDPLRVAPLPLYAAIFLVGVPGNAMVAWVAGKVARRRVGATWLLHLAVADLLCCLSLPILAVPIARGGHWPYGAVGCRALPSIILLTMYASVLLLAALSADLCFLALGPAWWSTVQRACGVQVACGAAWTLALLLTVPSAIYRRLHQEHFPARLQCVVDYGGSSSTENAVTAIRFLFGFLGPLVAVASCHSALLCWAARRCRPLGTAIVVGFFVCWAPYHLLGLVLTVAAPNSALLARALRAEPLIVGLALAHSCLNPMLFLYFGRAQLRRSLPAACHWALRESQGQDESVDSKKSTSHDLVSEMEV
Method: A chemotaxis Assay was Conducted with respect to the CHO cells transformed with C5L2. […] The chemotaxis of the cells in the absence of the antagonist candidate substance against a ligand was compared with that in the presence of the antagonist candidate substance against a ligand.

T1 sequence (Q9P296 whole entry): as above

CCNC(=O)[C@H]1O[C@@H](n2cnc3c(N)nc(NCCc4ccc(CCC(=O)O)cc4)nc32)[C@H](O)[C@@H]1O [CGS21680]
radioactivity of unbound candidate compound, C5L2 transformants versus control cells (C5L2 protein): no difference in the radioactivity was observed

CCNC(=O)[C@H]1O[C@@H](n2cnc3c(N)ncnc32)[C@H](O)[C@@H]1O [NECA, 5′-(N-ethylcarboxyamide)adenosine]
chemotaxis of the cells in the presence versus absence of the antagonist candidate substance [1]: no difference was observed
